Results reported in ChEMBL document CHEMBL5303573, “Mapping human microbiome drug metabolism by gut bacteria and their genes” (Nature, 2019).

Test: The drug is tested on Edwardsiella tarda strain: ATCC23685 for biotransformation. The drug concentrations were measured before and after a 12-h incubation by liquid-chromatography-coupled mass spectrometry (LC–MS)
Conditions: 2 µM
For `COC1=CC(=O)C[C@@H](C)[C@]12Oc1c(Cl)c(OC)cc(OC)c1C2=O` [GRISEOFULVIN], the “Bacterial Biotransformation” value was “Compound NOT metabolized”. For `CC(C)(C)NC[C@H](O)COc1nsnc1N1CCOCC1.O=C(O)/C=C\C(=O)O` [TIMOLOL MALEATE], the “Bacterial Biotransformation” value was “Compound NOT metabolized”.

Test: The drug is tested on Bacteroides coprophilus strain: DSM18228 for biotransformation. The drug concentrations were measured before and after a 12-h incubation by liquid-chromatography-coupled mass spectrometry (LC–MS)
Conditions: 2 µM
In the case of `CC(C)(C)NC[C@H](O)COc1nsnc1N1CCOCC1.O=C(O)/C=C\C(=O)O` [TIMOLOL MALEATE], the “Bacterial Biotransformation” value is reported as “Compound NOT metabolized”.

Test: The drug is tested on Collinsella intestinalis strain: DSM13280 for biotransformation. The drug concentrations were measured before and after a 12-h incubation by liquid-chromatography-coupled mass spectrometry (LC–MS)
Conditions: 2 µM
With `COC1=CC(=O)C[C@@H](C)[C@]12Oc1c(Cl)c(OC)cc(OC)c1C2=O` [GRISEOFULVIN] the “Bacterial Biotransformation” value was “Compound NOT metabolized”. In the case of `CC(C)(C)NC[C@H](O)COc1nsnc1N1CCOCC1.O=C(O)/C=C\C(=O)O` [TIMOLOL MALEATE], the “Bacterial Biotransformation” value is reported as “Compound NOT metabolized”.

Conditions: enterocloster bolteae, 12 h, 2 µM
Description: The drug is tested on Clostridium bolteae strain: ATCCBAA-613 for biotransformation. The drug concentrations were measured before and after a 12-h incubation by liquid-chromatography-coupled mass spectrometry (LC–MS)
With `COC1=CC(=O)C[C@@H](C)[C@]12Oc1c(Cl)c(OC)cc(OC)c1C2=O` [GRISEOFULVIN] the “Bacterial Biotransformation” value was “Compound NOT metabolized”. In the case of `CC(C)(C)NC[C@H](O)COc1nsnc1N1CCOCC1.O=C(O)/C=C\C(=O)O` [TIMOLOL MALEATE], the “Bacterial Biotransformation” value is reported as “Compound NOT metabolized”.

Test: The drug is tested on Bifidobacterium longum subsp. Infantis strain: CCUG52486 for biotransformation. The drug concentrations were measured before and after a 12-h incubation by liquid-chromatography-coupled mass spectrometry (LC–MS)
Conditions: 2 µM
In the case of `COC1=CC(=O)C[C@@H](C)[C@]12Oc1c(Cl)c(OC)cc(OC)c1C2=O` [GRISEOFULVIN], the “Bacterial Biotransformation” value is reported as “Compound NOT metabolized”. In the case of `CC(C)(C)NC[C@H](O)COc1nsnc1N1CCOCC1.O=C(O)/C=C\C(=O)O` [TIMOLOL MALEATE], the “Bacterial Biotransformation” value is reported as “Compound NOT metabolized”.

Conditions: bacteroides eggerthii, 12 h, 2 µM
Description: The drug is tested on Bacteroides eggerthii strain: DSM20697 for biotransformation. The drug concentrations were measured before and after a 12-h incubation by liquid-chromatography-coupled mass spectrometry (LC–MS)
For `COC1=CC(=O)C[C@@H](C)[C@]12Oc1c(Cl)c(OC)cc(OC)c1C2=O` [GRISEOFULVIN], the “Bacterial Biotransformation” value was “Compound metabolized”. For `CC(C)(C)NC[C@H](O)COc1nsnc1N1CCOCC1.O=C(O)/C=C\C(=O)O` [TIMOLOL MALEATE], the “Bacterial Biotransformation” value was “Compound NOT metabolized”.

Test: The drug is tested on Anaerococcus hydrogenalis strain: DSM7454 for biotransformation. The drug concentrations were measured before and after a 12-h incubation by liquid-chromatography-coupled mass spectrometry (LC–MS)
Conditions: 2 µM
For `COC1=CC(=O)C[C@@H](C)[C@]12Oc1c(Cl)c(OC)cc(OC)c1C2=O` [GRISEOFULVIN], the “Bacterial Biotransformation” value was “Compound NOT metabolized”. In the case of `CC(C)(C)NC[C@H](O)COc1nsnc1N1CCOCC1.O=C(O)/C=C\C(=O)O` [TIMOLOL MALEATE], the “Bacterial Biotransformation” value is reported as “Compound NOT metabolized”.

Test: The drug is tested on Bacteroides pectinophilus strain: ATCC43243 for biotransformation. The drug concentrations were measured before and after a 12-h incubation by liquid-chromatography-coupled mass spectrometry (LC–MS)
Conditions: 2 µM
With `COC1=CC(=O)C[C@@H](C)[C@]12Oc1c(Cl)c(OC)cc(OC)c1C2=O` [GRISEOFULVIN] the “Bacterial Biotransformation” value was “Compound NOT metabolized”. In the case of `CC(C)(C)NC[C@H](O)COc1nsnc1N1CCOCC1.O=C(O)/C=C\C(=O)O` [TIMOLOL MALEATE], the “Bacterial Biotransformation” value is reported as “Compound NOT metabolized”.

Test: The drug is tested on Parabacteroides merdae strain: ATCC43184 for biotransformation. The drug concentrations were measured before and after a 12-h incubation by liquid-chromatography-coupled mass spectrometry (LC–MS)
Conditions: 2 µM
For `COC1=CC(=O)C[C@@H](C)[C@]12Oc1c(Cl)c(OC)cc(OC)c1C2=O` [GRISEOFULVIN], the “Bacterial Biotransformation” value was “Compound metabolized”. With `CC(C)(C)NC[C@H](O)COc1nsnc1N1CCOCC1.O=C(O)/C=C\C(=O)O` [TIMOLOL MALEATE] the “Bacterial Biotransformation” value was “Compound NOT metabolized”.

Test: The drug is tested on Ruminococcus gnavus strain: ATCC29149 for biotransformation. The drug concentrations were measured before and after a 12-h incubation by liquid-chromatography-coupled mass spectrometry (LC–MS)
Conditions: mediterraneibacter gnavus, 2 µM
In the case of `COC1=CC(=O)C[C@@H](C)[C@]12Oc1c(Cl)c(OC)cc(OC)c1C2=O` [GRISEOFULVIN], the “Bacterial Biotransformation” value is reported as “Compound metabolized”. With `CC(C)(C)NC[C@H](O)COc1nsnc1N1CCOCC1.O=C(O)/C=C\C(=O)O` [TIMOLOL MALEATE] the “Bacterial Biotransformation” value was “Compound NOT metabolized”.

Test: The drug is tested on Providencia stuartii strain: ATCC25827 for biotransformation. The drug concentrations were measured before and after a 12-h incubation by liquid-chromatography-coupled mass spectrometry (LC–MS)
Conditions: 2 µM
For `CC(C)(C)NC[C@H](O)COc1nsnc1N1CCOCC1.O=C(O)/C=C\C(=O)O` [TIMOLOL MALEATE], the “Bacterial Biotransformation” value was “Compound NOT metabolized”.

Conditions: bacteroides stercoris, 12 h, 2 µM
Description: The drug is tested on Bacteroides stercoris strain: ATCC43183 for biotransformation. The drug concentrations were measured before and after a 12-h incubation by liquid-chromatography-coupled mass spectrometry (LC–MS)
In the case of `CC(C)(C)NC[C@H](O)COc1nsnc1N1CCOCC1.O=C(O)/C=C\C(=O)O` [TIMOLOL MALEATE], the “Bacterial Biotransformation” value is reported as “Compound NOT metabolized”.

Conditions: bacteroides intestinalis, 12 h, 2 µM
Description: The drug is tested on Bacteroides intestinalis strain: DSM17393 for biotransformation. The drug concentrations were measured before and after a 12-h incubation by liquid-chromatography-coupled mass spectrometry (LC–MS)
With `CC(C)(C)NC[C@H](O)COc1nsnc1N1CCOCC1.O=C(O)/C=C\C(=O)O` [TIMOLOL MALEATE] the “Bacterial Biotransformation” value was “Compound NOT metabolized”.

Test: The drug is tested on Bacteroides dorei strain: DSM17855 for biotransformation. The drug concentrations were measured before and after a 12-h incubation by liquid-chromatography-coupled mass spectrometry (LC–MS)
Conditions: phocaeicola dorei, 2 µM
For `COC1=CC(=O)C[C@@H](C)[C@]12Oc1c(Cl)c(OC)cc(OC)c1C2=O` [GRISEOFULVIN], the “Bacterial Biotransformation” value was “Compound metabolized”. For `CC(C)(C)NC[C@H](O)COc1nsnc1N1CCOCC1.O=C(O)/C=C\C(=O)O` [TIMOLOL MALEATE], the “Bacterial Biotransformation” value was “Compound NOT metabolized”.

Conditions: limosilactobacillus reuteri cf48-3a, 12 h, 2 µM
Description: The drug is tested on Lactobacillus reuteri CF48-3A strain: BEI HM-102 for biotransformation. The drug concentrations were measured before and after a 12-h incubation by liquid-chromatography-coupled mass spectrometry (LC–MS)
For `COC1=CC(=O)C[C@@H](C)[C@]12Oc1c(Cl)c(OC)cc(OC)c1C2=O` [GRISEOFULVIN], the “Bacterial Biotransformation” value was “Compound NOT metabolized”. For `CC(C)(C)NC[C@H](O)COc1nsnc1N1CCOCC1.O=C(O)/C=C\C(=O)O` [TIMOLOL MALEATE], the “Bacterial Biotransformation” value was “Compound NOT metabolized”.

Test: The drug is tested on Bacteroides sp. WH2 strain: WH2 for biotransformation. The drug concentrations were measured before and after a 12-h incubation by liquid-chromatography-coupled mass spectrometry (LC–MS)
Conditions: bacteroides sp. wh2, 12 h, 2 µM
For `COC1=CC(=O)C[C@@H](C)[C@]12Oc1c(Cl)c(OC)cc(OC)c1C2=O` [GRISEOFULVIN], the “Bacterial Biotransformation” value was “Compound NOT metabolized”. For `CC(C)(C)NC[C@H](O)COc1nsnc1N1CCOCC1.O=C(O)/C=C\C(=O)O` [TIMOLOL MALEATE], the “Bacterial Biotransformation” value was “Compound NOT metabolized”.

Test: The drug is tested on Collinsella aerofaciens strain: ATCC25986 for biotransformation. The drug concentrations were measured before and after a 12-h incubation by liquid-chromatography-coupled mass spectrometry (LC–MS)
Conditions: 2 µM
For `COC1=CC(=O)C[C@@H](C)[C@]12Oc1c(Cl)c(OC)cc(OC)c1C2=O` [GRISEOFULVIN], the “Bacterial Biotransformation” value was “Compound NOT metabolized”. In the case of `CC(C)(C)NC[C@H](O)COc1nsnc1N1CCOCC1.O=C(O)/C=C\C(=O)O` [TIMOLOL MALEATE], the “Bacterial Biotransformation” value is reported as “Compound NOT metabolized”.
